The target of experiment [1] is T1, Aurora kinase A (Homo sapiens) (UniProt O14965).
T1 sequence (whole entry): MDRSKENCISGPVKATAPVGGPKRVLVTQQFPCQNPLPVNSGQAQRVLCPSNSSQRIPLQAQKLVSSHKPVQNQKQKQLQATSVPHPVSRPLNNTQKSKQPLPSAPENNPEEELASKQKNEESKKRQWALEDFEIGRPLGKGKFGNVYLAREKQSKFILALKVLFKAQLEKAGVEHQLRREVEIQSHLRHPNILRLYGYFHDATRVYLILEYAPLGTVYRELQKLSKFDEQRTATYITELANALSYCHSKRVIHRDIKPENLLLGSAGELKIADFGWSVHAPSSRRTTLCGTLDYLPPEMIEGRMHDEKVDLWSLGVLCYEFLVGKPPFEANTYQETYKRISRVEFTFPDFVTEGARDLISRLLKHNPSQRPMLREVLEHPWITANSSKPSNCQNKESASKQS
The experiment in a line: Inhibition of Aurora A at 10 uM.

For experiment [2], the target named is T2, Aurora kinase A (Homo sapiens, UniProt O14965).
T2 sequence (O14965 whole entry): T1 sequence (whole entry)

Experiment [3] relates to HCT-116. The experiment in a line: Cytotoxicity against human HCT116 cells by MTS assay. Format: functional, cell-based. A general note: Tetrazolium assays rely on reduction of a dye to a coloured formazan, in cell work by metabolically active cells.
Experiment [4] has as its target T3, Epidermal growth factor receptor (Homo sapiens, UniProt P00533).
Description: Inhibition of GST-tagged EGFR expressed in Escherichia coli
The target of experiment [5] is Epidermal growth factor receptor (Homo sapiens, UniProt P00533, L858R/T790M).
Sequence of Epidermal growth factor receptor (Homo sapiens, UniProt P00533, L858R/T790M) (P00533 25-1210 T790M/L858R limits assumed): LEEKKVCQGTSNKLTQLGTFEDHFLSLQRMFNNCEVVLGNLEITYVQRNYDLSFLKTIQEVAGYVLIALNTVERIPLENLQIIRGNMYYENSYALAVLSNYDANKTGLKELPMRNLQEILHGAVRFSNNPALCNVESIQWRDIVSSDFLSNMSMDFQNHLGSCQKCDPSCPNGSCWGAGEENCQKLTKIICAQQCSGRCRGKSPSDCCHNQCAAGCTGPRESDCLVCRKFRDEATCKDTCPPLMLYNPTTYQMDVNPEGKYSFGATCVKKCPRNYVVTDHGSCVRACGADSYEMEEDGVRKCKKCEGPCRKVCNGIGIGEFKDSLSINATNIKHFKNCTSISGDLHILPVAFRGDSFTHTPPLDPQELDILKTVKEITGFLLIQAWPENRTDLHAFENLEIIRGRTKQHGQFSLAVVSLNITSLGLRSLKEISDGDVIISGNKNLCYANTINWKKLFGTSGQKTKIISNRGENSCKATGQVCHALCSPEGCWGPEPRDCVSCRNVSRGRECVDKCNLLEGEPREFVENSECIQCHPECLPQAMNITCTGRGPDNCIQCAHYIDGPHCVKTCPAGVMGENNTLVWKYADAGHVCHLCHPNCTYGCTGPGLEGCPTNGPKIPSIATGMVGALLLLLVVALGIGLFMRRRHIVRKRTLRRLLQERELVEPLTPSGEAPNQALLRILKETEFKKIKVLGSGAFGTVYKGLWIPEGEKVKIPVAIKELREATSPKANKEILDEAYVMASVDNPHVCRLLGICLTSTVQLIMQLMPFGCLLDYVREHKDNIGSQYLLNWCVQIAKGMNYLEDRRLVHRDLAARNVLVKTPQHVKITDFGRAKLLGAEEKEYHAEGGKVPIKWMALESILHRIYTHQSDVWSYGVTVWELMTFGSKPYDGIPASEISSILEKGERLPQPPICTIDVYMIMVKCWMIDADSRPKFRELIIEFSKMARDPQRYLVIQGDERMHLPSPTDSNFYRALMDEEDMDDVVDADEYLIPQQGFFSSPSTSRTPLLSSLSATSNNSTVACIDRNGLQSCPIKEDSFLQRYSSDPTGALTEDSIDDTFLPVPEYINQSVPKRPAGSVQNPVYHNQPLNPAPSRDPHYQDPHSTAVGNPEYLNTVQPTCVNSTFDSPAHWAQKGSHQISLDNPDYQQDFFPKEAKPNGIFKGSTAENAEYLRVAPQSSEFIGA
In experiment [6] the target is T3, Epidermal growth factor receptor. As to conditions: 20 uM.
Description: Inhibition of GST-tagged EGFR expressed in Escherichia coli at 20 uM
Experiment [7] is described as follows: cells. As to conditions: Homo sapiens, HCC827, 96 h.
Description: Antiproliferative activity against human HCC827 cells after 96 hrs by MTS assay

Each structure is given as a SMILES string. Some results are limits rather than exact numbers.

The term inhibition denotes the percentage by which the read-out fell short of the control. Low values mean little suppression, high ones strong suppression. As a reminder, the IC50 is the point on the concentration scale where inhibition reaches its midpoint.

T3 sequence (P00533 whole entry): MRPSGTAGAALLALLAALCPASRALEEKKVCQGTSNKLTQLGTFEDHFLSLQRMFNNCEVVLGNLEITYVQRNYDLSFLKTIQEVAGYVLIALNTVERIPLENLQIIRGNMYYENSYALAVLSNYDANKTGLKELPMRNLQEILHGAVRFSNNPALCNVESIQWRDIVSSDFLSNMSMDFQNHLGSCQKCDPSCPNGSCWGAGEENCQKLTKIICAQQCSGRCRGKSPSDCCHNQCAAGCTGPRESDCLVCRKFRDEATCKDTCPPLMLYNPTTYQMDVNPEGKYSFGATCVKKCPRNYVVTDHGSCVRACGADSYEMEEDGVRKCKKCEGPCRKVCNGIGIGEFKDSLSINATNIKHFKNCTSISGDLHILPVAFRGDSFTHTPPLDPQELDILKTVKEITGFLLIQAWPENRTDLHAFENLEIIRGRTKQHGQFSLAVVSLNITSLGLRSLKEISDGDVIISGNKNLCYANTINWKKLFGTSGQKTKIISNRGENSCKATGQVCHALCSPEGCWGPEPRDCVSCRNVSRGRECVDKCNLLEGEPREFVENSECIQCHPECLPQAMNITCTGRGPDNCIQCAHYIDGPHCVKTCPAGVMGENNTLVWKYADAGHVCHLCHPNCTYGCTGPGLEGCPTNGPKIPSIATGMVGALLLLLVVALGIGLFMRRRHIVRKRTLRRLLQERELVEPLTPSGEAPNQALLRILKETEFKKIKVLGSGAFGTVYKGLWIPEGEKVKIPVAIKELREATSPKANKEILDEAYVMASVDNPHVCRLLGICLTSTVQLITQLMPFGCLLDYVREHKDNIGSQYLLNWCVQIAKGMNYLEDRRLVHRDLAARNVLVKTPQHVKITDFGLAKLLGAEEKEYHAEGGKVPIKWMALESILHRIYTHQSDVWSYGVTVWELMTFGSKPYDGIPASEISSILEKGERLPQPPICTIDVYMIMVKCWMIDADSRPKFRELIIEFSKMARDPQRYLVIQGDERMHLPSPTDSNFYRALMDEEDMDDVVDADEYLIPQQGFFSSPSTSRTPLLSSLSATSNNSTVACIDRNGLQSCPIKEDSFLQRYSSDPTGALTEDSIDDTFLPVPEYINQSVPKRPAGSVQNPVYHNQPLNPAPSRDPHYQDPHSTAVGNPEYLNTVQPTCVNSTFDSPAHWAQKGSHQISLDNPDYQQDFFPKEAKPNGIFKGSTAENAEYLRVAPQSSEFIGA

Compound `c1ccc(-c2oc3ncnc(NCCN4CCOCC4)c3c2-c2ccccc2)cc1` yielded an inhibition in experiment [1] of 81.7%. The same compound showed an IC50 in experiment [2] of 1770 nM.

Turning to `O=S(=O)(Nc1ccc(CCNc2ncnc3oc(-c4ccccc4)c(-c4ccccc4)c23)cc1)c1ccccc1`, the IC50 in experiment [3] was above 10000 nM; in experiment [2], 5830 nM.

`C[C@@H](O)CNc1ncnc2oc(-c3ccccc3)c(-c3ccccc3)c12` had a concentration for half-maximal inhibition (IC50) in experiment [2] of 973 nM.

As for `OC1CCN(c2ncnc3oc(-c4ccccc4)c(-c4ccccc4)c23)CC1`, the inhibition in experiment [1] was 85.8%. For the same compound, the IC50 in experiment [2] amounted to 807 nM.

Consider `CC1CN(c2ncnc3oc(-c4ccccc4)c(-c4ccccc4)c23)CC(C)N1` (configuration not stated), for which half-maximal inhibition in experiment [2] (IC50) required 334 nM.

As for `CCOC(=O)CCNc1ncnc2oc(-c3ccccc3)c(-c3ccccc3)c12`, the IC50 in experiment [3] was above 10000 nM; in experiment [2] it was 796 nM.

Compound `c1ccc(-c2oc3ncnc(NCCc4ccccn4)c3c2-c2ccccc2)cc1` displayed a concentration for half-maximal inhibition (IC50) in experiment [2] of 535 nM.

The compound `C[C@@H](CO)Nc1ncnc2oc(-c3ccccc3)c(-c3ccccc3)c12` gave an IC50 in experiment [2] of 792 nM.

Turning to `O=C(Nc1ccc(CCNc2ncnc3oc(-c4ccccc4)c(-c4ccccc4)c23)cc1)c1ccccc1`, the IC50 was above 10000 nM in experiment [3] and 304 nM in experiment [2].

On to `O=C(CCNc1ncnc2oc(-c3ccccc3)c(-c3ccccc3)c12)Nc1ccccc1`, for which the IC50 in experiment [3] and in experiment [2] was above 10000 nM throughout.

For the compound `OC[C@@H](Nc1ncnc2oc(-c3ccccc3)c(-c3ccccc3)c12)c1ccccc1`, the IC50 is 223 nM in experiment [4], above 10000 nM in experiment [5] and 518 nM in experiment [7]. In experiment [6], this compound registered an inhibition above 80%.

For `c1ccc(-c2oc3ncnc(NCCc4cnc[nH]4)c3c2-c2ccccc2)cc1`, in experiment [2], half-maximal inhibition (IC50) required 296 nM. In other words, the sub-micromolar range.

Take `Cc1cc(Nc2cc(N3CCN(C)CC3)nc(Sc3ccc(NC(=O)C4CC4)cc3)n2)n[nH]1` [TOZASERTIB]: 120 nM corresponded to half-maximal inhibition in experiment [3] (IC50). This lies in the sub-micromolar range.

`Oc1ccc(CCNc2ncnc3oc(-c4ccccc4)c(-c4ccccc4)c23)cc1` showed an IC50 in experiment [2] of 640 nM.

Take `C=CC(=O)Nc1ccc(-c2c(-c3ccccc3)oc3ncnc(N[C@H](CO)c4ccccc4)c23)cc1`: the results for the IC50 in experiment [4], in experiment [5] and in experiment [7] were 82 nM, above 10000 nM and 394 nM, respectively.

In experiment [1], `c1ccc(-c2oc3ncnc(NCCc4c[nH]cn4)c3c2-c2ccccc2)cc1` yielded an inhibition of 91.4%.

In turn, `OCCOCCNc1ncnc2oc(-c3ccccc3)c(-c3ccccc3)c12` had a half-inhibitory concentration (IC50) in experiment [2] of 760 nM. That is a sub-micromolar value.

`OCCNc1ncnc2oc(-c3ccccc3)c(-c3ccccc3)c12`: the inhibition in experiment [1] worked out at 98.2%. Besides, the half-maximal inhibitory concentration (IC50) in experiment [2] came out at 309 nM.

Compound `c1ccc(-c2oc3ncnc(NCCCn4ccnc4)c3c2-c2ccccc2)cc1` yielded an inhibition in experiment [1] of 73.8%. The compound also came in with a concentration for half-maximal inhibition (IC50) in experiment [2] of 3310 nM.

For `Nc1ccc(CNc2ncnc3oc(-c4ccccc4)c(-c4ccccc4)c23)cc1`, the IC50 in experiment [2] was found to be 945 nM.

Regarding `Nc1ccc(CCNc2ncnc3oc(-c4ccccc4)c(-c4ccccc4)c23)cc1`, the IC50 in experiment [3] was above 10000 nM; in experiment [2], 640 nM.

Regarding `COC1C=CC(CNc2ncnc3oc(-c4ccccc4)c(-c4ccccc4)c23)(OC)O1` (configuration not stated), the half-inhibitory concentration (IC50) in experiment [2] turned out to be 827 nM. This lies in the sub-micromolar range.

Take `O=C(Nc1ccccc1)Nc1ccc(CCNc2ncnc3oc(-c4ccccc4)c(-c4ccccc4)c23)cc1`: it took 400 nM to reach half-maximal inhibition in experiment [3] (IC50).

For the origin of these results see ChEMBL document CHEMBL1177739, “Fast-forwarding hit to lead: aurora and epidermal growth factor receptor kinase inhibitor lead identification” (J Med Chem, 2010).
